The target in the assay is indoleamine 2, 3-dioxygenase (IDO1) (Homo sapiens, UniProt P14902). Kind of assay: PBMC IDO1 assay (kynurenine via mass spectrometry). The class given is cell-based. The procedure: Compounds of the present invention were tested via high-throughput cellular assays utilizing detection of kynurenine via mass spectrometry and cytotoxicity as end-points. For the mass spectrometry and cytotoxicity assays, human peripheral blood mononuclear cells (PBMC) (PB003F; AllCells®, Alameda, Calif.) were stimulated with human interferon-γ (IFN-γ) (Sigma-Aldrich Corporation, St. Louis, Mo.) and lipopolysaccharide from Salmonella minnesota (LPS) (Invivogen, San Diego, Calif.) to induce the expression of indoleamine 2, 3-dioxygenase (IDO1). Compounds with IDO1 inhibitory properties decreased the amount of kynurenine produced by the cells via the tryptophan catabolic pathway. Cellular toxicity due to the effect of compound treatment was measured using CellTiter-Glo® reagent (CTG) (Promega Corporation, Madison, Wis.), which is based on luminescent detection of ATP, an indicator of metabolically active cells.
In preparation for the assays, test compounds were serially diluted 3-fold in DMSO from a typical top concentration of 5 mM and plated at 0.5 μL in 384-well, polystyrene, clear bottom, tissue culture treated plates with lids (Greiner Bio-One, Kremsmünster, Austria) to generate 11-point dose response curves. Low control wells (0% kynurenine or 100% cytotoxicity) contained either 0.5 μL of DMSO in the presence of unstimulated (-IFN-γ/-LPS) PBMCs for the mass spectrometry assay or 0.5 μL of DMSO in the absence of cells for the cytotoxicity assay, and high control wells (100% kynurenine or 0% cytotoxicity) contained 0.5 μL of DMSO in the presence of stimulated (+IFN-γ/+LPS) PBMCs for both the mass spectrometry and cytotoxicity assays.
Frozen stocks of PBMCs were washed and recovered in RPMI 1640 medium (Thermo Fisher Scientific, Inc., Waltham, Mass.) supplemented with 10% v/v heat-inactivated fetal bovine serum (FBS) (Thermo Fisher Scientific, Inc., Waltham, Mass.), and 1× penicillin-streptomycin antibiotic solution (Thermo Fisher Scientific, Inc., Waltham, Mass.). The cells were diluted to 1,000,000 cells/mL in the supplemented RPMI 1640 medium. 50 μL of either the cell suspension, for the mass spectrometry assay, or medium alone, for the cytotoxicity assay, were added to the low control wells, on the previously prepared 384-well compound plates, resulting in 50,000 cells/well or 0 cells/well respectively. IFN-γ and LPS were added to the remaining cell suspension at final concentrations of 100 ng/ml and 50 ng/ml respectively, and 50 μL of the stimulated cells were added to all remaining wells on the 384-well compound plates. The plates, with lids, were then placed in a 37° C., 5% CO2 humidified incubator for 2 days.
Following incubation, the 384-well plates were removed from the incubator and allowed to equilibrate to room temperature for 30 minutes. For the cytotoxicity assay, CellTiter-Glo® was prepared according to the manufacturer's instructions, and 40 μL were added to each plate well. After a twenty minute incubation at room temperature, luminescence was read on an EnVision® Multilabel Reader (PerkinElmer Inc., Waltham, Mass.). For the mass spectrometry assay, 10 μL of supernatant from each well of the compound-treated plates were added to 40 μL of acetonitrile, containing 10 μM of an internal standard for normalization, in 384-well, polypropylene, V-bottom plates (Greiner Bio-One, Kremsmünster, Austria) to extract the organic analytes. Following centrifugation at 2000 rpm for 10 minutes, 10 μL from each well of the acetonitrile extraction plates were added to 90 μL of sterile, distilled H2O in 384-well, polypropylene, V-bottom plates for analysis of kynurenine and the internal standard on the RapidFire 300 (Agilent Technologies, Santa Clara, Calif.) and 4000 QTRAP MS (SCIEX, Framingham, Mass.). MS data were integrated using Agilent Technologies' RapidFire Integrator software, and data were normalized for analysis as a ratio of kynurenine to the internal standard. […]

[1] abbreviates: human PBMC stimulated with IFN-γ and LPS, 2 days, kynurenine by mass spectrometry, recorded as pIC50, read-out: PBMC PXC50_ (converted).

Here are results for 26 molecules from US10927078B2, “Modulators of indoleamine 2,3-dioxygenase” (GLAXOSMITHKLINE INTELLECTUAL PROPERTY DEVELOPMENT LIMITED, priority 2017, dated 2021).

Where two headings read alike, the source gives them in different places.

Chain of indoleamine 2, 3-dioxygenase (IDO1) (P14902 whole entry): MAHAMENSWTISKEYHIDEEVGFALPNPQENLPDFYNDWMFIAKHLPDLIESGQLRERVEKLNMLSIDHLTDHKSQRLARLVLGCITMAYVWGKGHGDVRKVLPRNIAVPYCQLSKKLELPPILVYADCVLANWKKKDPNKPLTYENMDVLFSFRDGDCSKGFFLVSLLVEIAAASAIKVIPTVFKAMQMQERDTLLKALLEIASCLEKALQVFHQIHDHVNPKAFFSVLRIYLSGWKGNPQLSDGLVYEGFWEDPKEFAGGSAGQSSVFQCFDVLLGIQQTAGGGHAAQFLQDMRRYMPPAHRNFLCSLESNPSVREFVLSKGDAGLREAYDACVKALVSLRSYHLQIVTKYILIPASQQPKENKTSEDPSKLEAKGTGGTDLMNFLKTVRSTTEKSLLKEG

For `Cc1ccc(C(=O)NC(C2CC2)C2CCN(C(=O)Oc3c(C)ncnc3C)CC2)s1` (stereo in doubt) [Example 113, (S)-4,6-dimethylpyrimidin-5-yl 4-(cyclopropyl(5-methylthiophene-2-carboxamido)methyl)piperidine-1-carboxylate], the IC50 under setting [1] was 12.6 nM. Regarding `O=C(NC(C1CC1)C1CCN(C(=O)Oc2cncnc2)CC1)c1ccc(Cl)s1` (stereo in doubt) [Example 115, (S)-pyrimidin-5-yl 4-((5-chlorothiophene-2-carboxamido)(cyclopropyl)methyl)piperidine-1-carboxylate], the IC50 under setting [1] was 50.1 nM. `Cc1nccc(OC(=O)N2CCC([C@H](NC(=O)c3ccc(Cl)s3)c3ccccc3)CC2)c1C` [Example 1, (S)-2,3-dimethylpyridin-4-yl 4-((5-chlorothiophene-2-carboxamido)(phenyl)methyl)piperidine-1-carboxylate]: under setting [1], the IC50 was 0.631 nM.

`Cc1ccnc(C)c1OC(=O)N1CCC(C(CC(C)C)NC(=O)c2ccc(Cl)cc2)CC1` (centres unmarked) [Example 3, 2,4-dimethylpyridin-3-yl 4-(1-(4-chlorobenzamido)-3-methylbutyl)piperidine-1-carboxylate] gave an IC50 of 1 nM. In turn, `CC(C)CC(NC(=O)c1ccc(Cl)cc1)C1CCN(C(=O)Oc2cccnc2C#N)CC1` (centres unmarked) [Example 5, 2-cyanopyridin-3-yl 4-{1-[(4-chlorophenyl)formamido]-3-methylbutyl}piperidine-1-carboxylate] gave an IC50 of 1.58 nM.

As to `Cc1ncccc1OC(=O)N1CCC(C(CC(C)C)NC(=O)c2ccc(Cl)cc2)CC1` (centres unmarked) [Example 6, 2-methylpyridin-3-yl 4-{1-[(4-chlorophenyl)formamido]-3-methylbutyl}piperidine-1-carboxylate], the IC50 is 1.58 nM.

On to `Cc1nccc(OC(=O)N2CCC([C@H](NC(=O)c3ccc(Cl)s3)C3CC3)CC2)c1C` [Example 7, 2,3-dimethylpyridin-4-yl 4-[(R)-[(5-chlorothiophen-2-yl)formamido](cyclopropyl)methyl]piperidine-1-carboxylate], for which the IC50 under setting [1] is 2 nM. With `CC(C)C[C@@H](NC(=O)c1ccc(Cl)s1)C1CCN(C(=O)Oc2ccccc2)CC1` [Example 8, phenyl 4-[(1R)-1-[(5-chlorothiophen-2-yl)formamido]-3-methylbutyl]piperidine-1-carboxylate], under setting [1], the IC50 was 2 nM.

Take `Cc1c(F)cccc1OC(=O)N1CCC(C(CC(C)C)NC(=O)c2ccc(F)cc2)CC1` (centres unmarked) [Example 9, 3-fluoro-2-methylphenyl 4-{1-[(4-fluorophenyl)formamido]-3-methylbutyl}piperidine-1-carboxylate]: under setting [1], the IC50 is 2.51 nM. `COc1ncccc1OC(=O)N1CCC(C(CC(C)C)NC(=O)c2ccc(Cl)cc2)CC1` (centres unmarked) [Example 10, 2-methoxypyridin-3-yl 4-{1-[(4-chlorophenyl)formamido]-3-methylbutyl}piperidine-1-carboxylate]: the IC50 is 2.51 nM. `CC(C)CC(NC(=O)c1ccc(F)cc1)C1CCN(C(=O)Oc2cccc(F)c2Cl)CC1` (centres unmarked) [Example 11, 2-chloro-3-fluorophenyl 4-{1-[(4-fluorophenyl)formamido]-3-methylbutyl}piperidine-1-carboxylate]: under setting [1], the IC50 is 2.51 nM.

As for `CC(C)CC(NC(=O)c1ccc(F)cc1)C1CCN(C(=O)Oc2cccc(F)c2C#N)CC1` (centres unmarked) [Example 12, 2-cyano-3-fluorophenyl 4-{1-[(4-fluorophenyl)formamido]-3-methylbutyl}piperidine-1-carboxylate], the IC50 under setting [1] is 2.51 nM. For `COc1c(F)cccc1OC(=O)N1CCC(C(CC(C)C)NC(=O)c2ccc(F)cc2)CC1` (centres unmarked) [Example 13, 3-fluoro-2-methoxyphenyl 4-{1-[(4-fluorophenyl)formamido]-3-methylbutyl}piperidine-1-carboxylate], under setting [1], the IC50 is 2.51 nM. Regarding `Cc1ncccc1OC(=O)N1CCC([C@H](NC(=O)c2ccc(Cl)cc2)c2ccccc2)CC1` [Example 14, 2-methylpyridin-3-yl 4-[(S)-[(4-chlorophenyl)formamido](phenyl)methyl]piperidine-1-carboxylate], the IC50 was 2.51 nM. In the case of `Cc1ncnc(C)c1OC(=O)N1CCC(C(CC(C)C)NC(=O)c2ccc(Cl)cc2)CC1` (centres unmarked) [Example 15, 4,6-dimethylpyrimidin-5-yl 4-{1-[(4-chlorophenyl)formamido]-3-methylbutyl}piperidine-1-carboxylate], the IC50 under setting [1] is 2.51 nM. The same measure, in the same setting: the same measure for `CC(C)CC(NC(=O)c1ccc(Cl)s1)C1CCN(C(=O)Oc2ccccc2)CC1` (centres unmarked) [Example 16, phenyl 4-{1-[(5-chlorothiophen-2-yl)formamido]-3-methylbutyl}piperidine-1-carboxylate]: 3.16 nM. Molecule `Cc1ncccc1OC(=O)N1CCC(C(CC(C)C)NC(=O)c2ccc(F)cc2)CC1` (centres unmarked) [Example 18, 2-methylpyridin-3-yl 4-{1-[(4-fluorophenyl)formamido]-3-methylbutyl}piperidine-1-carboxylate] had an IC50 of 3.16 nM. As to `Cc1c(F)cccc1OC(=O)N1CCC([C@H](NC(=O)c2ccc(Cl)s2)C2CC2)CC1` [Example 19, 3-fluoro-2-methylphenyl 4-[(R)-[(5-chlorothiophen-2-yl)formamido](cyclopropyl)methyl]piperidine-1-carboxylate], under setting [1], the IC50 is 3.16 nM. For `Cc1nccc(OC(=O)N2CCC([C@H](NC(=O)c3ccc(Cl)cc3)c3ccccc3)CC2)c1C` [Example 20, 2,3-dimethylpyridin-4-yl 4-[(S)-[(4-chlorophenyl)formamido](phenyl)methyl]piperidine-1-carboxylate], the IC50 under setting [1] was 3.98 nM. As for `CC(C)C[C@@H](NC(=O)c1ccc(Cl)cc1)C1CCN(C(=O)Oc2ccccc2)CC1` [Example 21, phenyl 4-[(1R)-1-[(4-chlorophenyl)formamido]-3-methylbutyl]piperidine-1-carboxylate], the IC50 under setting [1] is 3.98 nM. `CC(C)CC(NC(=O)c1ccc(F)cc1)C1CCN(C(=O)Oc2cccnc2F)CC1` (centres unmarked) [Example 22, 2-fluoropyridin-3-yl 4-{1-[(4-fluorophenyl)formamido]-3-methylbutyl}piperidine-1-carboxylate]: the IC50 is 3.98 nM. With `O=C(N[C@H](C1CC1)C1CCN(C(=O)Oc2ccccc2)CC1)c1ccc(Cl)s1` [Example 23, phenyl 4-[(R)-[(5-chlorothiophen-2-yl)formamido](cyclopropyl)methyl]piperidine-1-carboxylate], the IC50 under setting [1] was 3.98 nM.

Turning to `CC(C)C[C@@H](NC(=O)c1ccccc1)C1CCN(C(=O)Oc2ccccc2)CC1` [Example 25, phenyl 4-[(1R)-3-methyl-1-(phenylformamido)butyl]piperidine-1-carboxylate], the IC50 under setting [1] is 5.01 nM.

Regarding `CC(C)CC(NC(=O)c1ccc(Cl)cc1)C1CCN(C(=O)Oc2ccccc2)CC1` (centres unmarked) [Example 26, phenyl 4-{1-[(4-chlorophenyl)formamido]-3-methylbutyl}piperidine-1-carboxylate], under setting [1], the IC50 is 5.01 nM.

`CC(C)C[C@@H](NC(=O)c1ccc(F)cc1)C1CCN(C(=O)Oc2ccccc2)CC1` [Example 27, phenyl 4-[(1R)-1-[(4-fluorophenyl)formamido]-3-methylbutyl]piperidine-1-carboxylate]: under setting [1], the IC50 was 5.01 nM. As to `Cc1cccc(OC(=O)N2CCC(C(CC(C)C)NC(=O)c3ccc(F)cc3)CC2)c1F` (centres unmarked) [Example 28, 2-fluoro-3-methylphenyl 4-{1-[(4-fluorophenyl)formamido]-3-methylbutyl}piperidine-1-carboxylate], the IC50 under setting [1] was 5.01 nM.
